Reference: patent US20050101595A1, “N-containing cycloalkyl-substituted amino-thiazole derivatives and pharmaceutical compositions for inhibiting cell proliferation and methods for their use” (PFIZER INC., priority 2003, published 2005)

Assays:
[1] = biological target: human CDK4 and genetically truncated (1-264) cyclin D3 (Homo sapiens, UniProt P11802); assay: Inhibition of CDK4/Cyclin D Retinoblastoma Kinase Activity; assay type: biochemical; conditions: at 0.03 μM
Outline: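 The enzyme complex (5 nM), expressed in co-infected insect cells, was incubated with recombinant Rb fragment, 25 μM radiolabelled ATP and 2% DMSO at 30 °C. Reactions were stopped with EDTA after 20 minutes, or 60 minutes for tight-binding inhibitors. Apparent Ki values came from competitive inhibition fits.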

[2] = system: HCT-116 cell line; assay: Inhibition of cell growth, tetrazolium salt (MTT) assay; assay type: cell-based; conditions: HCT-116 cells
Outline: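 First, cells were seeded in McCoy's 5A medium and held 4 h. Next, inhibitor concentrations in 0.5% (v/v) DMSO were applied for three to five days at 37° C, 5% CO2. Finally, after 4 h with 0.2 mg/mL MTT and medium removal, solubilized formazan was measured at 540 nm.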

[3] = biological target: CDK2/Cyclin A (Homo sapiens, UniProt P24941); assay: Inhibition of CDK2/Cyclin A Retinoblastoma Kinase Activity; assay type: biochemical; conditions: at 0.03 μM
Outline: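 CDK2 (10 or 19 nM), insect-cell expressed, gel-filtration purified with truncated cyclin A; Rb fragment substrate; 25 μM ATP; 10 mM HEPES pH 7.4, 10 mM MgCl2; 30° C, 60 or 75 min; EDTA stop; phosphocellulose/nitrocellulose capture, phosphorimager. % inhibition vs DMSO control, no-enzyme background subtracted.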

Sequence of human CDK4 and genetically truncated (1-264) cyclin D3 (P11802 whole entry, the tested form may be a part): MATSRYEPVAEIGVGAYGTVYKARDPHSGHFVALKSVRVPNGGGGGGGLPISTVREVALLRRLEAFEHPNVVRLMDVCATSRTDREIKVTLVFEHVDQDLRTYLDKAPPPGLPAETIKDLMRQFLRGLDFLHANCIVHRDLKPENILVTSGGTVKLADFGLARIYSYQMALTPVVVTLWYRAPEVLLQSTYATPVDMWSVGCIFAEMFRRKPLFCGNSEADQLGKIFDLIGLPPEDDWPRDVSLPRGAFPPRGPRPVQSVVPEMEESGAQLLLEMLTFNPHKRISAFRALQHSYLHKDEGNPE
Sequence of human CDK4 and genetically truncated (1-264) cyclin D3 (P30281 1-264 partner): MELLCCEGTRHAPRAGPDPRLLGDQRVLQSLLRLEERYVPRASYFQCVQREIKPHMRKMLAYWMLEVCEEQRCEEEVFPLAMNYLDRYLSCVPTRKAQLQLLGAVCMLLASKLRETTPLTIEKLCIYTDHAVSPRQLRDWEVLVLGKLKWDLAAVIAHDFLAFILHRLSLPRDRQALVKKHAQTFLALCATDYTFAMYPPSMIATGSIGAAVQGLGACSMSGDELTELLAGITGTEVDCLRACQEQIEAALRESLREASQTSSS

| CDK4 % Inhibition at 0.03 μM [1] | CDK2 % Inhibition at 0.03 μM [3] | Structure (SMILES) | HCT-116 % Inhibition at 0.1 μM [2] | HCT-116 5 Inhibition at 0.25 μM [2] |
| --- | --- | --- | --- | --- |
| 9% | −31% | Nc1nc(NC2CCN(C(=O)C(=O)c3c[nH]c4ccccc34)CC2)sc1C(=O)c1c(F)cccc1F [Example R5] | 13% | 49 |
| 42% | 14% | CCOc1ccccc1C(=O)N1CCC(Nc2nc(N)c(C(=O)c3c(F)cccc3F)s2)CC1 [Example R6] | 12% | 51 |
| 29% | −3% | Nc1nc(NC2CCN(C(=O)c3ccc4c(c3)OCO4)CC2)sc1C(=O)c1c(F)cccc1F [Example R7] | 7% | 46 |
| 13% | −11% | COc1ccc(C(=O)N2CCC(Nc3nc(N)c(C(=O)c4c(F)cccc4F)s3)CC2)c(OC)c1 [Example R8] | 8% | 41 |
| 19% | −15% | CC(Oc1ccccc1)C(=O)N1CCC(Nc2nc(N)c(C(=O)c3c(F)cccc3F)s2)CC1 (centres unmarked) [Example R9] | 5% | 37 |
| 29% | 5% | CCC(C(=O)N1CCC(Nc2nc(N)c(C(=O)c3c(F)cccc3F)s2)CC1)c1ccccc1 (centres unmarked) [Example R10] | 0% | 40 |
| 49% | 4% | Cc1onc(-c2ccccc2Cl)c1C(=O)N1CCC(Nc2nc(N)c(C(=O)c3c(F)cccc3F)s2)CC1 [Example R11] | 0% | 37 |
| 23% | −10% | Nc1nc(NC2CCN(C(=O)COc3cc(Cl)c(Cl)cc3Cl)CC2)sc1C(=O)c1c(F)cccc1F [Example R12] | 0% | 48 |
| 69% | 32% | Nc1nc(NC2CCN(C(=O)c3ccc(N=Nc4ccccc4)cc3)CC2)sc1C(=O)c1c(F)cccc1F [Example R13] | 0% | 42 |
| 49% | 19% | CCCCCOc1ccc(C(=O)N2CCC(Nc3nc(N)c(C(=O)c4c(F)cccc4F)s3)CC2)cc1 [Example R14] | 0% | 46 |
| 12% | −29% | COC(C(=O)N1CCC(Nc2nc(N)c(C(=O)c3c(F)cccc3F)s2)CC1)(c1ccccc1)C(F)(F)F (centres unmarked) [Example R16] | 6% | 41 |
| 73% | 66% | Nc1nc(NC2CCN(C(=O)c3cc4ccccc4s3)CC2)sc1C(=O)c1c(F)cccc1F [Example R17] | 0% | 45 |
| 46% | 25% | Nc1nc(NC2CCN(C(=O)c3cccnc3Cl)CC2)sc1C(=O)c1c(F)cccc1F [Example R18] | 0% | 45 |
| 54% | 37% | CCSc1ncccc1C(=O)N1CCC(Nc2nc(N)c(C(=O)c3c(F)cccc3F)s2)CC1 [Example R19] | 0% | 46 |
| 85% | 59% | Nc1nc(NC2CCN(C(=O)c3ccc(Cl)nc3)CC2)sc1C(=O)c1c(F)cccc1F [Example R20] | 0% | 42 |
| 38% | 2% | Cc1onc(-c2ccccc2)c1C(=O)N1CCC(Nc2nc(N)c(C(=O)c3c(F)cccc3F)s2)CC1 [Example R21] | 0% | 47 |
| 58% | 22% | Nc1nc(NC2CCN(C(=O)c3ccc(OC(F)(F)F)cc3)CC2)sc1C(=O)c1c(F)cccc1F [Example R22] | 7% | 48 |
| 34% | −6% | Nc1nc(NC2CCN(C(=O)c3ccccc3OC(F)(F)F)CC2)sc1C(=O)c1c(F)cccc1F [Example R23] | 2% | 38 |

| CDK4 % Inhibition at 0.03 μM [1] | CDK2 % Inhibition at 0.03 μM [3] | Structure (SMILES) | HCT-116 % Inhibition at 0.1 μM [2] | HCT-116 5 Inhibition at 0.25 μM [2] |
| --- | --- | --- | --- | --- |
| 49% | 20% | Cc1nn(-c2ccccc2)nc1C(=O)N1CCC(Nc2nc(N)c(C(=O)c3c(F)cccc3F)s2)CC1 [Example R24] | 5% | 39 |
| 22% | −9% | Cc1noc(C)c1C(=O)N1CCC(Nc2nc(N)c(C(=O)c3c(F)cccc3F)s2)CC1 [Example R25] | 0% | 43 |
| 64% | 17% | Cc1onc(-c2c(Cl)cccc2Cl)c1C(=O)N1CCC(Nc2nc(N)c(C(=O)c3c(F)cccc3F)s2)CC1 [Example R26] | 0% | 46 |
| 19% | 6% | Nc1nc(NC2CCN(C(=O)c3cccnc3Oc3ccccc3)CC2)sc1C(=O)c1c(F)cccc1F [Example R27] | 0% | 43 |
| 66% | 58% | CCCSc1ncccc1C(=O)N1CCC(Nc2nc(N)c(C(=O)c3c(F)cccc3F)s2)CC1 [Example R28] | 0% | 41 |
| 23% | 2% | Cc1cc(C)c2c(c1C(=O)N1CCC(Nc3nc(N)c(C(=O)c4c(F)cccc4F)s3)CC1)CC(C)(C)C2=O [Example R29] | 0% | 36 |
| 63% | 31% | Nc1nc(NC2CCN(C(=O)c3cnc(Cl)c(Cl)c3)CC2)sc1C(=O)c1c(F)cccc1F [Example R30] | 13% | 43 |
| 60% | 57% | Nc1nc(NC2CCN(C(=O)c3sc4ccccc4c3Cl)CC2)sc1C(=O)c1c(F)cccc1F [Example R31] | 0% | 42 |
| 65% | 38% | Nc1nc(NC2CCN(C(=O)CSc3ccccc3)CC2)sc1C(=O)c1c(F)cccc1F [Example R32] | 0% | 48 |
| 80% | 58% | COC(=O)c1ccc(C(=O)N2CCC(Nc3nc(N)c(C(=O)c4c(F)cccc4F)s3)CC2)cc1 [Example R33] | 1% | 49 |
| 60% | 35% | Nc1nc(NC2CCN(C(=O)c3ccc4c(c3)C(=O)c3ccccc3C4=O)CC2)sc1C(=O)c1c(F)cccc1F [Example R34] | 0% | 55 |
| 21% | 19% | Nc1nc(NC2CCN(C(=O)c3ccc(C(F)(F)F)cc3F)CC2)sc1C(=O)c1c(F)cccc1F [Example R35] | 0% | 49 |
| 17% | 21% | Nc1nc(NC2CCN(C(=O)c3ccc(F)cc3C(F)(F)F)CC2)sc1C(=O)c1c(F)cccc1F [Example R36] | 0% | 51 |
| 22% | 27% | Nc1nc(NC2CCN(C(=O)c3c(F)ccc(F)c3F)CC2)sc1C(=O)c1c(F)cccc1F [Example R37] | 0% | 48 |
| 35% | 0% | Nc1nc(NC2CCN(C(=O)c3ccc(C(F)(F)F)cc3C(F)(F)F)CC2)sc1C(=O)c1c(F)cccc1F [Example R38] | 0% | 33 |
| 16% | −6% | COC(C(=O)N1CCC(Nc2nc(N)c(C(=O)c3c(F)cccc3F)s2)CC1)(c1ccccc1)C(F)(F)F (centres unmarked) [Example R39] | 5% | 51 |
| 66% | 41% | COc1ccc(Oc2ccc([N+](=O)[O-])cc2C(=O)N2CCC(Nc3nc(N)c(C(=O)c4c(F)cccc4F)s3)CC2)cc1 [Example R40] | 0% | 43 |
